From patent US5025027A, “Cyclic carbamate analogues of (+)-pilocarpine” (Regents of the University of California, priority 1989, dated 1991)

How the values were obtained:
muscarinic receptors = target: T1, muscarinic receptors (Cavia porcellus, UniProt H0W1Z3); assay: Guinea pig ileum bioassay (isotonic contractions); conditions: for muscarinic agonist activity (in words) / EC50 / potency compared with pilocarpine (in words): guinea pig ileum; for muscarinic agonist activity (in words) / EC50: in vitro; for EC50: read-out: ED50 (the source's name); for potency compared with pilocarpine (in words): relative to pilocarpine; for contractions of guinea pig ileum (FIG. 1), in words: single doses, 9, 10, 8 in increasing order of potency
T1 construct: a distal portion of guinea pig ileum was cut and a segment (1-1.5 cm) was tied at both ends; from tissue; host or cells: guinea pig distal ileum segment (isolated organ bath)
Experimental: Guinea Pig Ileum Bioassay. Briefly, a distal portion of guinea pig ileum was cut and a segment (1-1.5 cm) was tied at both ends. One end was connected to a force displacement transducer and the other end to the muscle holder in a 5 ml organ bath. […] After the tissue was allowed to equilibrate for 45-60 minutes, single doses of agonists were administered into the bath and isotonic contractions were recorded on a Grass polygraph.

[1] = cited from earlier work; for pharmacological activity (in words): products of lactone cleavage or epimerization of pilocarpine; for activity of pilocarpine analogues (in words): less active than pilocarpine
[2] = cited from earlier work

T1 sequence (H0W1Z3 1-590): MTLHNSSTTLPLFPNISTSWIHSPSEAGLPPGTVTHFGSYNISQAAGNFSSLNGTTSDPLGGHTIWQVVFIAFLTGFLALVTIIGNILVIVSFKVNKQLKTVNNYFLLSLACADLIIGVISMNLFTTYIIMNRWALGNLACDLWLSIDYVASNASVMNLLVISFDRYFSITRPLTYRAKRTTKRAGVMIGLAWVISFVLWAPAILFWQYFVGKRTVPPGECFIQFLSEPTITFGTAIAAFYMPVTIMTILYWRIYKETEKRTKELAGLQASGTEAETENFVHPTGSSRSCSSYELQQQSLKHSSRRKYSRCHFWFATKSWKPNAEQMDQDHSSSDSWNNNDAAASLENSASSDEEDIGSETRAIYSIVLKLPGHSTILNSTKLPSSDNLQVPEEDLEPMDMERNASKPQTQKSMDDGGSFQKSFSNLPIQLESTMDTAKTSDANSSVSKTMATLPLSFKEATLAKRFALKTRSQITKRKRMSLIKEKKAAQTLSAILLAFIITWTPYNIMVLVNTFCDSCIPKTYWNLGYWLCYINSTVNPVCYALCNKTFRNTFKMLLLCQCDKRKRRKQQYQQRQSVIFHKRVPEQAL

CCN1C(=O)OC[C@@H]1Cc1cn(Cc2ccccc2)cn1 [Compound 6, (S)-3-Ethyl-4-(1,'-benzyl-4'-imidazolyl)methyl-2-oxazolidinone]
muscarinic agonist activity (in words) (muscarinic receptors): inactive

CCN1C(=O)OC[C@@H]1Cc1c[n+](Cc2ccccc2)cn1C [Compound 7]
muscarinic agonist activity (in words) (muscarinic receptors): inactive

CCN1C(=O)OC[C@@H]1Cc1cncn1C [Compound 8, (S)-3-Ethyl-4-(1'-methyl-5'-imidazolyl)methyl-2-oxazolidinone]
EC50 (muscarinic receptors): 1 µM | potency compared with pilocarpine (in words) (muscarinic receptors): equipotent with pilocarpine | log concentration-response curves (in words) (muscarinic receptors; pilocarpine and 8 compared): parallel log concentration-response curves | contractions of guinea pig ileum (FIG. 1), in words (muscarinic receptors): cholinergic muscarinic agonists

CCN1C(=O)OC[C@@H]1Cc1c[nH]cn1 [Compound 9, (S)-3-Ethyl-4-(4'-imidazolyl)methyl-2-oxazolidinone]
muscarinic agonist activity (in words) (muscarinic receptors): weaker muscarinic agonists | EC50 (muscarinic receptors): 180 µM | potency compared with pilocarpine (in words) (muscarinic receptors): less active | contractions of guinea pig ileum (FIG. 1), in words (muscarinic receptors): cholinergic muscarinic agonists

CCN1C(=O)OC[C@@H]1Cc1cn(C)cn1 [Compound 10, (S)-3-Ethyl-4-(1'-methyl-4'-imidazolyl)methyl-2-oxazolidinone]
muscarinic agonist activity (in words) (muscarinic receptors): weaker muscarinic agonists | EC50 (muscarinic receptors): 14 µM | potency compared with pilocarpine (in words) (muscarinic receptors): less active | contractions of guinea pig ileum (FIG. 1), in words (muscarinic receptors): cholinergic muscarinic agonists

CC[C@H]1C(=O)OC[C@@H]1Cc1cncn1C [isopilocarpine]
pharmacological activity (in words) [1]: essentially pharacologically inactive

CC[C@@H]1C(=O)OC[C@@H]1Cc1cn(C)cn1 [neopilocarpine]
activity of pilocarpine analogues (in words) [1]: less active

CC[C@H](C(=O)O)[C@H](CO)Cc1cncn1C [pilocarpic acid]
pharmacological activity (in words) [1]: essentially pharacologically inactive

CC[C@@H]1C(=O)OC[C@@H]1Cc1cnc[nH]1 [pilocarpidine]
activity of pilocarpine analogues (in words) [1]: less active

CC[C@@H]1C(=O)OC[C@@H]1Cc1cncn1C [pilocarpine]
side effects on administration for long periods (in words) ([2]; administered for long periods): without side effects | effect on intraocular pressure (in words) ([2]; narrow and wide angle glaucoma): decreases the intraocular pressure | duration of intraocular pressure lowering ([2]; topical miotic): about three | duration of biological activity (in words) ([1]; due to hydrolytic cleavage of the lactone ring and/or epimerization): short duration of biological activity
